Laboratory results from patent US10955409B2, “Method for the identification of sensory neuron subtypes in ex vivo preparations” (AnaBios Corporation, priority 2017, dated 2021).

Test system: Aδ- and C-type neurons (human DRG neurons)
Experiment: Electric field stimulation (EFS) live cell calcium imaging of human DRG neurons
Format: cell-based
Conditions: high voltage 15V/cm supra-threshold stimulation
Description: DRGs from the first thoracic vertebra (T1) through the first sacral vertebra (S1) were used in the present study. Human DRG neurons where isolated from organ donors for which full legal and ethical consent had been obtained. The DRGs were stripped of connective tissue and enzymatically digested at 37° C. for 2 h using AnaBios' proprietary enzyme mixture. Samples were then centrifuged for 2 min at 200×g, supernatant was gently removed, and tissue was washed 4 times, followed by resuspension in DMEM/F12 (Lonza) containing 1% horse serum (Thermo Fisher Scientific). Ganglia were mechanically dissociated by gentle trituration through the fire-polished tip of a sterile glass Pasteur pipette. […] Cells were maintained in culture at 37° C. with 5% CO2 in DMEM/F12 supplemented with 10% horse serum (Thermo Fisher Scientific), 2 mM glutamine, 25 ng/mL hNGF (Cell Signaling Technology, Danvers, Mass.), 25 ng/mL GDNF (Peprotech), and penicillin/streptomycin (Thermo Fisher Scientific). Half of the culture media was replaced with fresh media every 3 days.
Cells were loaded with 3 M Fluo-8-AM (AAT Bioquest) containing 0.1% Pluronic F-127 (Sigma) for 20 min. at room temperature. Extracellular solution contained in (mM): 145 NaCl, 3 KCl, 2 CaCl2), 1 MgCl2, 10 HEPES, 10 glucose adjusted to pH 7.4 with NaOH. […]

SMILES: CCN(CC)CC(=O)Nc1c(C)cccc1C [lidocaine]
- sensitivity of the maximal response to EFS to lidocaine: exhibited sensitivity
